Experimental findings from US20090139433A1, “DENTAL MATERIALS BASED ON ALKYLENEDIAMINE-N,N,N',N'- TETRAACETIC ACID- (METH)ACRYLAMIDES” (Ivoclar Vivadent AG, priority 2007, published 2009) are described below.

The data set in a line: Examination of the resistance to hydrolysis by 1H-NMR on storage. The class given is physicochemical. The settings on record: 20% solution in DMSO-d6/D2O (1:1); for hydrolysis products in the 1H-NMR spectrum at the start of the investigation: 37° C., at the start / immediately. On the procedure:
To examine the hydrolysis stabilities of the monomers MAM-EDTA and MA-EDTA, respectively, in each case a 20% solution in DMSO-d6/D2O (1:1) was stored at 37° C. At certain intervals, the ^1H-NMR spectra of these solutions were recorded. […] After 119 days' storage at 37° C., approx. 50% of the methacrylic ester groups had been hydrolyzed. In contrast, the monomer MAM-EDTA according to the invention was clearly more hydrolysis-resistant.

On to “EDTA-di(2-methacryloyloxyethyl)ester [MA-EDTA]”, for which the “hydrolysis products in the 1H-NMR spectrum at the start of the investigation” value was “a second double-bond signal could be observed immediately”. For the same substance, the “methacrylic ester groups hydrolyzed” value (after 119 days' storage at 37° C., 1H-NMR) was “approx. 50%”.

Turning to “EDTA-di(5-methacrylamidopentyl)ester [MAM-EDTA]”, the “hydrolysis products in the 1H-NMR spectrum at the start of the investigation” value is recorded as “no hydrolysis products could be recognized”. For the same substance, for the setting “after 119 days at 37° C.”, the “additional double-bond signals in the 1H-NMR spectrum” value was “no additional double-bond signals could be detected”.
